Results published in patent US20230124862A1, “BISMUTH THIOL COMPOUNDS AND COMPOSITIONS AND METHODS OF TREATING MICROBIAL CO-INFECTIONS” (Microbion Corporation, priority 2020, published 2023).
“And” between values parts separate entries of the source, which are not always exact repeats. Identical values can stand only once. Like-named read-outs stand apart in the source and are kept apart here.

Assay type: in vivo, beagle dogs
Protocol: Once adequately conditioned to the restraint device and face-masks, the animals are individually exposed to the test article aerosols. Animals receive a single face-mask inhalation exposure in a ramp study design to test article aerosols for up to 60 min. Animal observations during and post exposure determine the tolerance of inhaled BisEDT aerosols.
Blood Collections and Bioanalytical Analysis: Blood are collected for pharmacokinetic (PK) analysis prior to exposure, then at 4 hr (±5 min) post exposure, and again on Day 1, Day 2, Day 7 (pre- and 4 hr (±5 min)-post exposure), Day 8, Day 9, Day 10, Day 11, Day 12, Day 13, and Day 14. A total of 0.25 mL is collected at each timepoint. No PK blood is collected from the vehicle control (Group 1) animals; only animals exposed to BisEDT have blood collected for PK analysis. Collected samples are flash frozen without processing for shipment to Medpace for bioanalytical analysis. Additional blood is collected from all animals in all groups for hematology (1 mL) and clinical chemistry (1 mL) at baseline, Day 7 (pre-exposure), and again at euthanasia. Blood (2-2 mL) is collected from all animals at necropsy for coagulation analysis (d-Dimer, fibrinogen, PT, and PTT).
For clinical chemistry analyses, whole blood (1 mL) is placed into serum separator or clot tube and […] by centrifugation at a minimum of 1300 g at 2 to 8° C. for 10 (±1) min. Plasma samples are stored at −70 to −90° C. until analysis.
Clinical chemistry samples are analyzed on a Hitachi Modular Analytics Clinical Chemistry System (Roche Diagnostics, Indianapolis, Ind.).

SMILES: C1C[S][Bi]([S]CC[S][Bi]2[S]CC[S]2)[S]1 [BisEDT, Bismuth-1,2-ethanedithiol]
- GGT (dog 4002 Female): 3 IU/L
- GLOB (dog 4002 Female): 2.1 g/dL and 2.0 g/dL
- GLUC (dog 4002 Female): 106 mg/dL and 79 mg/dL
- K (dog 4002 Female): 5.3 mmo/L
- Na (dog 4002 Female): 153 mmo/L and 149 mmo/L
- TBIL (dog 4002 Female): 0.15 mg/dL
- TP (dog 4002 Female): 5.6 g/dL and 5.5 g/dL
- TRIG (dog 4002 Female): 34 mg/dL and 41 mg/dL
- AGR (dog 4003 Male): 1.8 and 1.6
- ALB (dog 4003 Male): 3.5 g/dL and 3.3 g/dL
- ALPK (dog 4003 Male): 146 IU/L and 129 IU/L
- ALT (dog 4003 Male): 40 IU/L and 23 IU/L
- AST (dog 4003 Male): 30 IU/L and 33 IU/L
- BUN (dog 4003 Male): 16 mg/dL and 15 mg/dL
- CA2 (dog 4003 Male): 11.2 mg/dL and 11.0 mg/dL
- CHOL (dog 4003 Male): 152 mg/dL and 176 mg/dL
- CREA (dog 4003 Male): 0.6 mg/dL and 0.7 mg/dL
- Cl (dog 4003 Male): 117 mmo/L and 112 mmo/L
- GGT (dog 4003 Male): 3 IU/L
- GLOB (dog 4003 Male): 1.9 g/dL and 2.1 g/dL
- GLUC (dog 4003 Male): 109 mg/dL and 81 mg/dL
- K (dog 4003 Male): 4.9 mmo/L
- Na (dog 4003 Male): 149 mmo/L and 147 mmo/L
- TBIL (dog 4003 Male): 0.15 mg/dL
- TP (dog 4003 Male): 5.4 g/dL
- TRIG (dog 4003 Male): 55 mg/dL and 53 mg/dL
- AGR (dog 4004 Female): 2.0 and 1.7 and 1.9
- ALB (dog 4004 Female): 3.4 g/dL and 3.3 g/dL
- ALPK (dog 4004 Female): 103 IU/L and 93 IU/L and 95 IU/L
- ALT (dog 4004 Female): 28 IU/L and 25 IU/L and 24 IU/L
- AST (dog 4004 Female): 33 IU/L and 38 IU/L and 31 IU/L
- BUN (dog 4004 Female): 13 mg/dL
- CA2 (dog 4004 Female): 10.8 mg/dL and 10.6 mg/dL
- CHOL (dog 4004 Female): 125 mg/dL and 124 mg/dL and 112 mg/dL
- CREA (dog 4004 Female): 0.6 mg/dL
- Cl (dog 4004 Female): 119 mmo/L and 115 mmo/L and 114 mmo/L
- GGT (dog 4004 Female): 3 IU/L
- GLOB (dog 4004 Female): 1.7 g/dL and 1.9 g/dL
- GLUC (dog 4004 Female): 102 mg/dL and 70 mg/dL and 96 mg/dL
- K (dog 4004 Female): 4.6 mmo/L and 5.1 mmo/L and 4.3 mmo/L
- Na (dog 4004 Female): 153 mmo/L and 148 mmo/L and 146 mmo/L
- TBIL (dog 4004 Female): 0.15 mg/dL
- TP (dog 4004 Female): 5.1 g/dL and 5.2 g/dL and 5.0 g/dL
- TRIG (dog 4004 Female): 53 mg/dL and 49 mg/dL and 44 mg/dL
- AGR (dogs, Grp 2 Avg): 1.8 and 2.2 and 2.1
- ALB (dogs, Grp 2 Avg): 3.3 g/dL and 3.5 g/dL and 3.6 g/dL
- ALPK (dogs, Grp 2 Avg): 186 IU/L and 126 IU/L and 116 IU/L
- ALT (dogs, Grp 2 Avg): 20 IU/L and 26 IU/L and 25 IU/L
- AST (dogs, Grp 2 Avg): 42 IU/L and 39 IU/L and 37 IU/L
- BUN (dogs, Grp 2 Avg): 13 mg/dL and 15 mg/dL
- CA2 (dogs, Grp 2 Avg): 10.9 mg/dL and 10.8 mg/dL
- CHOL (dogs, Grp 2 Avg): 153 mg/dL and 145 mg/dL and 133 mg/dL
- CREA (dogs, Grp 2 Avg): 0.7 mg/dL and 0.6 mg/dL
- Cl (dogs, Grp 2 Avg): 110 mmo/L and 114 mmo/L and 111 mmo/L
- GGT (dogs, Grp 2 Avg): 3 IU/L
- GLOB (dogs, Grp 2 Avg): 1.8 g/dL and 1.7 g/dL
- GLUC (dogs, Grp 2 Avg): 93 mg/dL and 98 mg/dL and 96 mg/dL
- K (dogs, Grp 2 Avg): 4.8 mmo/L and 5.1 mmo/L and 4.7 mmo/L
- Na (dogs, Grp 2 Avg): 149 mmo/L and 147 mmo/L and 148 mmo/L
- TBIL (dogs, Grp 2 Avg): 0.15 mg/dL
- TP (dogs, Grp 2 Avg): 5.1 g/dL and 5.2 g/dL and 5.4 g/dL
- TRIG (dogs, Grp 2 Avg): 52 mg/dL and 60 mg/dL and 47 mg/dL
- AGR (dogs, Grp 3 Avg): 2.2 and 1.9 and 2.4
- ALB (dogs, Grp 3 Avg): 3.4 g/dL and 3.5 g/dL and 3.6 g/dL
- ALPK (dogs, Grp 3 Avg): 153 IU/L and 113 IU/L and 149 IU/L
- ALT (dogs, Grp 3 Avg): 27 IU/L and 22 IU/L and 21 IU/L
- AST (dogs, Grp 3 Avg): 30 IU/L and 32 IU/L
- CA2 (dogs, Grp 3 Avg): 11.0 mg/dL and 10.7 mg/dL and 10.2 mg/dL
- CHOL (dogs, Grp 3 Avg): 113 mg/dL and 143 mg/dL and 126 mg/dL
- CREA (dogs, Grp 3 Avg): 0.6 mg/dL and 1.0 mg/dL
- Cl (dogs, Grp 3 Avg): 112 mmo/L and 110 mmo/L
- GGT (dogs, Grp 3 Avg): 3 IU/L
- GLOB (dogs, Grp 3 Avg): 1.6 g/dL and 1.9 g/dL and 1.5 g/dL
- GLUC (dogs, Grp 3 Avg): 106 mg/dL and 89 mg/dL and 58 mg/dL
- K (dogs, Grp 3 Avg): 5.1 mmo/L and 5.2 mmo/L and 5.9 mmo/L
- Na (dogs, Grp 3 Avg): 148 mmo/L and 146 mmo/L and 149 mmo/L
- TBIL (dogs, Grp 3 Avg): 0.15 mg/dL
- TP (dogs, Grp 3 Avg): 4.9 g/dL and 5.3 g/dL and 5.1 g/dL
- TRIG (dogs, Grp 3 Avg): 30 mg/dL and 39 mg/dL and 55 mg/dL
- AGR (dogs, Grp 4 Avg): 2.2 and 1.8 and 1.9
- ALB (dogs, Grp 4 Avg): 3.5 g/dL and 3.4 g/dL and 3.3 g/dL
- ALPK (dogs, Grp 4 Avg): 103 IU/L and 104 IU/L and 107 IU/L
- ALT (dogs, Grp 4 Avg): 28 IU/L and 26 IU/L
- AST (dogs, Grp 4 Avg): 33 IU/L and 39 IU/L
- BUN (dogs, Grp 4 Avg): 12 mg/dL and 13 mg/dL
- CA2 (dogs, Grp 4 Avg): 10.8 mg/dL and 10.7 mg/dL and 10.5 mg/dL
- CHOL (dogs, Grp 4 Avg): 139 mg/dL and 136 mg/dL and 112 mg/dL
- CREA (dogs, Grp 4 Avg): 0.7 mg/dL and 0.6 mg/dL
- Cl (dogs, Grp 4 Avg): 120 mmo/L and 116 mmo/L and 114 mmo/L
- GGT (dogs, Grp 4 Avg): 3 IU/L
- GLOB (dogs, Grp 4 Avg): 1.7 g/dL and 1.9 g/dL
- GLUC (dogs, Grp 4 Avg): 102 mg/dL and 76 mg/dL and 91 mg/dL
- K (dogs, Grp 4 Avg): 4.7 mmo/L and 5.0 mmo/L and 4.5 mmo/L
- Na (dogs, Grp 4 Avg): 153 mmo/L and 148 mmo/L and 146 mmo/L
- TBIL (dogs, Grp 4 Avg): 0.15 mg/dL
- TP (dogs, Grp 4 Avg): 5.2 g/dL and 5.3 g/dL and 5.0 g/dL
- TRIG (dogs, Grp 4 Avg): 51 mg/dL and 48 mg/dL and 42 mg/dL
